In patent publication US20100273656A1, “COMPOSITION AND METHOD FOR SELECTIVE HERBICIDE” (priority 2002, published 2010):

What was measured:
perennial ryegrass = assay: Example 21 Fe chelates with Killex, perennial ryegrass; type: in vivo; details: A29 = 29 days after treatment
Procedure: Plants were fertilized with an all purpose water-soluble fertilizer mix of 20-20-20 (N-P-K; Plant-Prod®) as needed. All broadleaf weeds were grown individually in a 2¼-inch pot until they were a suitable size for herbicide tests (actual weed size is reported in examples below). Perennial ryegrass was also grown in 2¼-inch pots, however many grass seeds were sown in the pot to simulate a small section of turf. Grass plants were continually trimmed to a height of 4 cm, simulating that of a homeowner's lawn. For field tests, plots ¼ m^2 in size were marked out in areas containing the targeted broadleaf weed species growing in turf grass. Plots were continually mowed to simulate a homeowner's lawn. […] In all of the examples, the amounts of the various herbicide components are identified as a percent on a weight basis.
Killex® (Scotts Canada, Ltd., Ontario, Canada) is a commonly used selective lawn herbicide and was used as the commercial herbicide for herbicide combinations. The labeled dilution and application rates for Killex® are 6 ml into 1 L of solution (0.6%) applied at 200 ml/m^2.
All visual plant damage assessments were made using a quantitative rating scale; percent control relative to the untreated check (0=no effect; 100=plant death).
Materials and Methods: This trial was conducted in the greenhouse. […] Phytotoxicity (%) was assessed 29 days after treatment (A29).

grass = assay: Example 2 field test of FeEDDS and FeHEDTA at pH 3 and 7, grass; type: in vivo; details: in vivo
Procedure: The following non-limiting examples serve to further describe the invention. Unless otherwise specified, all of the iron solutions were made using the same molar concentration of iron ion as chelating agent. All of the outside tests were done on areas of mixed grass and dandelions that were at least 2 months old. For the greenhouse tests, dandelions were grown in a commercial greenhouse mix, using supplemental lighting and heating. Each plant was grown in a 2¼ inch pot to a minimum diameter of 20 cm. All of the solutions were sprayed onto the plants at a rate of 100 ml/m^2. The ferrous sulfate formulations that were used in examples 1, 2, 8 and 9 contained 1% iron (180 mM), 18 mM EDTA, 1% citric acid and 0.5% urea. In all of the examples, the amount of iron is identified in brackets as the percent iron on a weight basis.
All plant damage was assessed using a qualitative rating scale from 0 to 9.
The FeEDDS and FeHEDTA solutions contained 0.2% Fe^+3 (35.8 mM). The ferrous sulfate contained 1% Fe^+2 (179.1 mM). The solutions were sprayed at a rate of 0.1 L/m^2 onto 2 plots of 0.5 m^2 of mixed grass and dandelions. Observations were made 4 days after spraying.

## O=C([O-])CN(CCO)CCN(CC(=O)[O-])CC(=O)[O-].[Fe+3] [FeHEDTA]
Perennial ryegrass
  Phytotoxicity (%) on perennial ryegrass: 0%
grass; pH 2.6
  Grass Damage (0 to 9): 0.0 0 to 9
grass; pH 7
  Grass Damage (0 to 9): 1.0 0 to 9
